Results reported in ChEMBL document CHEMBL1151299, “Flavonoids with anti-cataract activity from Brickellia arguta” (J Nat Prod, 1984).

What was measured:
[1] = target: Aldo-keto reductase family 1 member B1 (Rattus norvegicus) (UniProt P07943); experiment: Inhibition of rat lens aldose reductase at 1 uM
[2] = target: Aldo-keto reductase family 1 member B1 (Rattus norvegicus) (UniProt P07943); experiment: Inhibition of rat lens aldose reductase at 10 uM
[3] = target: Aldo-keto reductase family 1 member B1 (Rattus norvegicus) (UniProt P07943); experiment: Inhibition of rat lens aldose reductase at 0.1 uM

inhibition [1] [%]	inhibition [2] [%]	inhibition [3] [%]	SMILES
40	0		O=C(O)CN1C(=O)c2cccc3cccc(c23)C1=O
32	9	63	COc1c(O)cc2oc(-c3ccc(O)cc3)c(O[C@@H]3O[C@H](CO[C@@H]4O[C@@H](C)[C@H](O)[C@@H](O)[C@H]4O)[C@H](O)[C@H](O)[C@H]3O)c(=O)c2c1O
33	11	86	COc1c(O)cc2oc(-c3ccc(O)c(O)c3)c(O[C@@H]3O[C@H](CO[C@@H]4O[C@@H](C)[C@H](O)[C@@H](O)[C@H]4O)[C@H](O)[C@H](O)[C@H]3O)c(=O)c2c1O
38	7	84	COc1c(O)cc2oc(-c3ccc(O)c(O)c3)c(O[C@@H]3O[C@H](CO)[C@H](O)[C@H](O)[C@H]3O)c(=O)c2c1O
